The structures appear in SMILES notation.

Compound `Cc1ccc(Cc2nc3cc(Cl)ccc3[nH]2)cc1` registered a log partition coefficient (logP) of 5.21.
Consider `Clc1ccc(Cc2nc3cc(Cl)ccc3[nH]2)cc1`, for which the logP was 5.18.
In turn, `COc1ccc(-c2nc3cc(C)ccc3[nH]2)c(OC)c1` gave a lipophilicity (logP) of 3.78.
`CC(C)(C)c1ccc(-c2nc3ncccc3[nH]2)cc1` came in with a lipophilicity (logP) of 4.82.
With `Clc1ccc(-c2nc3ncccc3[nH]2)cc1`, the lipophilicity (logP) was 2.95.
Regarding `CCc1ccc(-c2nc3ncccc3[nH]2)cc1`, the logP was found to be 3.42.
The same measure for `Cc1ccc(-c2nc3ccccc3[nH]2)cc1`: 3.67.
`Cc1ccc(-c2nc3cc([N+](=O)[O-])ccc3[nH]2)c(C)c1`: the logP came out at 4.1.
`COc1ccc(Cc2nc3cc([N+](=O)[O-])ccc3[nH]2)cc1` came in with a logP of 3.48.
Consider `Fc1ccc(-c2nc3ncccc3[nH]2)cc1`, for which the log partition coefficient (logP) was determined as 2.52.
`Nc1ccc(Cc2nc3cc(Cl)ccc3[nH]2)cc1` gave a logP of 3.2.
`Cc1ccc(-c2nc3ncccc3[nH]2)cc1` displayed a lipophilicity (logP) of 3.02.
The compound `Cc1ccccc1-c1nc2cc([N+](=O)[O-])ccc2[nH]1` showed a lipophilicity (logP) of 3.42.
Consider `Clc1ccc2[nH]c(Cc3ccc(Br)cc3)nc2c1`, for which the logP was found to be 5.38.
The compound `COc1ccccc1-c1nc2ccccc2[nH]1` came in with a logP of 3.02.

The values above are taken from the OPERA property sets (Mansouri et al. 2018).
